Measurements published in patent US5696155A, “Dibenz[b,e]oxepin derivatives and pharmaceutical agents which contain them” (Boehringer Mannheim BmbH, priority 1993, dated 1997).

Target: T1, human recombinant type II PLA2 (=synovial PLA2) (Homo sapiens, UniProt P14555)
T1 sequence (P14555 21-144): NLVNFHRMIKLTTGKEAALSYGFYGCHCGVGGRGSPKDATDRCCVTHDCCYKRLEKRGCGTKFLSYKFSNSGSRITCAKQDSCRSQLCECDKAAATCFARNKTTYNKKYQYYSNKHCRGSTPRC
Assay: Inhibition of PLA2 activity (sPLA2 enzyme activity, in vitro)
Format: biochemical
Conditions: means of 3 experiments (duplicate determinations); for inhibition at 1 µg/mL: concentration 1 μg/ml; for inhibition at 0.1 µg/mL: concentration 0.1 μg/ml; for inhibition at 10 µg/mL: concentration 10 μg/ml
Source text: Inhibition of PLA2 activity
The human recombinant type II PLA2 (=synovial PLA2) as a typical representative of a PLA2 was used for the test.
This documents the superiority of the new sPLA2 inhibitors compared to a cyclooxygenase inhibitor.

`COc1ccc2c(c1)c(CC(=O)O)c(C)n2C(=O)c1ccc(Cl)cc1` [Indomethacin, reference compound] gave an inhibition at 1 µg/mL of 0%.
`CCCCCCCCOc1ccc2c(c1)COc1c(cc3c(=O)cc(C(=O)OCC)oc3c1CCC)C2=O` [Ex.4a), 7,13-dihydro-2-octyloxy-11-propyl-5H-10,12-dioxabenzo-[4,5]cyclo-hepta[1,2-b]naphthalen-5,7-dione-9-carboxylic acid ethyl ester] gave an inhibition at 0.1 µg/mL of 16%, an inhibition at 1 µg/mL of 17% and an inhibition at 10 µg/mL of 49%.
With `CCOC(=O)c1cc(=O)c2c3c(ccc2o1)C(=O)c1ccc(O)cc1CO3` [Ex.2a), 7,12-dihydro-10-hydroxy-1H-4,13-dioxabenzo[4,5]cyclohepta[1,2-a]-naphthalene-1,7-dione-3-carboxylic acid-ethyl ester] the inhibition at 0.1 µg/mL was 28%, the inhibition at 1 µg/mL was 52% and the inhibition at 10 µg/mL was 61%.
With `CCOC(=O)c1cc(=O)c2cc3c(cc2o1)OCc1cc(O)ccc1C3=O` [Ex.2c), 7,13-dihydro-2-hydroxy-5H-10,12-dioxabenzo[4,5]cyclohepta[1,2-b]-naphthalen-5,7-dione-9-carboxylic acid ethyl ester] the inhibition at 0.1 µg/mL was 12%, the inhibition at 1 µg/mL was 73% and the inhibition at 10 µg/mL was 78%.
